For orientation: EC50 means the midpoint of the concentration-response curve.

The first test relates to insulin receptor (IR). The experiment in a line: Phosphotyrosine enzyme linked immunosorbent assay: pTyr on insulin receptor in NIH3T3 cells over-expressing human IR (H25 cells). Conditions: Table III; 100, 50 and 25 μM.
Consider `O=[N+]([O-])c1cnc(Sc2nnc(NC3CCCCC3)s2)s1` [Compound 75], for which the “increase in PTYR” value is given as 47%.

The test is the same for the next values; noted with them: Table III; at 100 μM.
Turning to `Nc1ccc(-n2nnnc2Sc2ncc([N+](=O)[O-])s2)cc1` [Compound 32, 1-(4-Aminophenyl)-5-[(5-nitrothiazol-2-yl)mercapto]tetrazole], the “increase in PTYR” value is recorded as 40%.

Consider `COc1ccc2nc(Sc3ncc([N+](=O)[O-])s3)[nH]c2c1` [Compound 45, 5-Methoxy-2-[(5-nitrothiazol-2-yl)mercapto]benzimidazole], for which the “increase in PTYR” value is listed as 46%.

The same test, now with this note: from 15.6 μM to 250 μM.
`O=[N+]([O-])c1cnc(Nc2nc(-c3ccc(Cl)cc3)n[nH]2)s1` [Compound 10, 3-(4-chlorophenyl)-5-[(5-nitrothiazol-2-yl)amino]-1,2,4-triazole]: the “dose dependence of the increase in the pTyr level” value is reported as “dependent on the dose”.

The test is the same for the next values; noted with them: read-out: ACTIVITY EC50.
Consider `O=[N+]([O-])c1ccc(-c2nnc(Sc3ncc([N+](=O)[O-])s3)[nH]2)o1` [Compound 78, 2-(2-Nitrofuran-5-yl)-5-[(5-nitrothiazol-2-yl)mercapto]-1,2,4-triazole], for which the EC50 was found to be 36 µM.

For the molecule `O=[N+]([O-])c1cnc(Sc2nnc(Sc3nnc(SCCCl)s3)s2)s1` [Compound 26, 2-(2-Chloroethylmercapto)-5-[[2-[(5-nitrothiazol-2-yl)mercapto]-1,3,4-thiadiazol-5-yl]mercapto]-1,3,4-thiadiazole], the EC50 came to 46 µM.

The same test, now with this note: read-out: ACTIVITY EC50; Table III; […].
On to `CCOC(=O)CSc1nnc(Sc2nnc(Sc3ncc([N+](=O)[O-])s3)s2)s1` [Compound 25, 2-[(Ethoxycarbonyl)methylmercapto]-5-[[2-[(5-nitrothiazol-2-yl)mercapto]-1,3,4-thiadiazol-5-yl]mercapto]-1,3,4-thiadiazole], for which the EC50 amounted to 48 µM.

Turning to `O=[N+]([O-])c1cnc(Sc2nnc(NC3CCCCC3)s2)s1` [Compound 75], the EC50 is above 100 µM.

As to `CCn1nnnc1Sc1ncc([N+](=O)[O-])s1` [Compound 34, 1-Ethyl-5-[(5-nitrothiazol-2-yl)mercapto]tetrazole], the EC50 is 33 µM.

Take `O=C1CCCc2nc(Sc3ncc([N+](=O)[O-])s3)ncc21` [Compound 68, 2-[(5-Nitrothiazol-2-yl)mercapto]cyclohexylpyrimid-5-one]: the EC50 is above 100 µM.

On to `O=C(O)Cn1nnnc1Sc1ncc([N+](=O)[O-])s1` [Compound 58, 1-Carboxymethyl-5-[(5-nitrothiazol-2-yl)mercapto]tetrazole], for which the EC50 is 40 µM.

With `Cc1cccc(C)c1NC1=CN=C(Sc2ncc([N+](=O)[O-])s2)SN1` [Compound 70, 3-(2,6-dimethylphenylamino)-6-[(5-nitrothiazol-2-yl)mercapto]-1,2,5-thiadiazine], the EC50 was above 100 µM.

With `CSc1nnc(Sc2ncc([N+](=O)[O-])s2)s1` [Compound 61, 2-Methylmercapto-5-[(5-nitrothiazol-2-yl)mercapto]-1,3,4-thiadiazole], the EC50 is 32 µM.

Take `O=[N+]([O-])c1cnc(Sc2nnc(Nc3ccccc3)s2)s1` [Compound 73, 2-[(5-Nitrothiazol-2-yl)mercapto]-5-phenylamino-1,3,4-thiadiazole]: the EC50 came out at 10 µM.

As for `NS(=O)(=O)c1ccc(-n2nnnc2Sc2ncc([N+](=O)[O-])s2)cc1` [Compound 33, 1-(4-Aminosulfonylphenyl)-5-[(5-nitrothiazol-2-yl)mercapto]tetrazole], the EC50 was above 100 µM.

On to `O=[N+]([O-])c1cnc(Sc2nc3c([nH]2)CC(Cl)C(Cl)C3)s1` (stereo not shown) [Compound 39, 5,6-Dichloro-2-[(5-nitrothiazol-2-yl)mercapto]cyclohexoimidazole], for which the EC50 came out at 17.5 µM.

Consider `Cc1ccc(S(=O)(=O)n2c(Sc3ncc([N+](=O)[O-])s3)nc3ccccc32)cc1` [Compound 17, 1-Tosyl-2-[(5-nitrothiazol-2-yl)mercapto]benzimidazole], for which the EC50 was above 25 µM.

For `Cn1nnnc1Sc1ncc([N+](=O)[O-])s1` [Compound 56, 1-Methyl-5-[(5-nitrothiazol-2-yl)mercapto]tetrazole], the EC50 came out at 27 µM.

For the molecule `O=CNc1nnc(Sc2ncc([N+](=O)[O-])s2)s1` [Compound 22, 2-Formamido-5-[(5-nitrothiazol-2-yl)mercapto]-1,3,4-thiadiazole], the EC50 was determined as 29 µM.

Take `O=[N+]([O-])c1cnc(Sc2nccn2Cc2ccccc2)s1` [Compound 16, 1-Benzyl-2-[(5-nitrothiazol-2-yl)mercapto]imidazole]: the EC50 was determined as 27 µM.

For `CCOc1ccc(OCC)c2[nH]c(Sc3ncc([N+](=O)[O-])s3)nc12` [Compound 46, 4,7-Diethoxy-2-[(5-nitrothiazol-2-yl)mercapto]benzimidazole], the EC50 was 9.7 µM.

`C=CCn1nnnc1Sc1ncc([N+](=O)[O-])s1` [Compound 30, 1-Allyl-5-[(5-nitrothiazol-2-yl)mercapto]tetrazole]: the EC50 is 32 µM.

Turning to `O=[N+]([O-])c1cnc(Sc2nnnn2-c2ccc(O)cc2)s1` [Compound 55, 1-(4-Hydroxyphenyl)-5-[(5-nitrothiazol-2-yl)mercapto]tetrazole], the EC50 amounted to 41 µM.

As to `CCCn1c(Sc2ncc([N+](=O)[O-])s2)nc2c(O)nnc(O)c21` [Compound 49], the half-maximal effective concentration (EC50) stood at 4 µM.

In the case of `O=[N+]([O-])c1cnc(Sc2nc3cc(C(F)(F)F)cc(Br)c3[nH]2)s1` [Compound 40, 4-Bromo-2-[(5-nitrothiazol-2-yl)mercapto]-6-(trifluoromethyl)benzimidazole], the EC50 amounted to 8.6 µM.

As to `O=[N+]([O-])c1cnc(Sc2nnc(SCc3cccc(C(F)(F)F)c3)s2)s1` [Compound 63, 2-[(5-Nitrothiazol-2-yl)mercapto]-5-[3-(trifluoromethyl)benzylmercapto]-1,3,4-thiadiazole], the EC50 is 75 µM.

For the molecule `Nc1ccc(-n2nnnc2Sc2ncc([N+](=O)[O-])s2)cc1` [Compound 29, 1-(4-Aminophenyl)-5-[(5-nitrothiazol-2-yl)mercapto]tetrazole], the EC50 was above 100 µM.

Regarding `CCOC(=O)c1nc(Sc2ncc([N+](=O)[O-])s2)n(C2CCCCC2)c1C(=O)OCC` [Compound 47, 1-Cyclohexyl-4,5-di(ethoxycarbonyl)-2-[(5-nitrothiazol-2-yl)mercapto]imidazole], the EC50 was 15.7 µM.

On to `CCOC(=O)c1cnc(Sc2ncc([N+](=O)[O-])s2)n1C` [Compound 44, 4-Ethoxycarbonyl-3-methyl-2-[(5-nitrothiazol-2-yl)mercapto]imidazole], for which the EC50 is 7.6 µM.

On to `CCCCSc1nnc(Sc2ncc([N+](=O)[O-])s2)s1` [Compound 23, 2-n-Butylmercapto-5-[(5-nitrothiazol-2-yl)mercapto]-1,3,4-thiadiazole], for which the EC50 is above 100 µM.

For the molecule `CC(C)n1c(Sc2ncc([N+](=O)[O-])s2)nc2cc(Cl)ccc21` [Compound 52, 5-Chloro-1-isopropyl-2-[(5-nitrothiazol-2-yl)mercapto]benzimidazole], the EC50 is above 50 µM.

Consider `O=[N+]([O-])c1cnc(Sc2nnnn2-c2ccc(F)cc2)s1` [Compound 54, 1-(4-Fuorophenyl)-5-[(5-nitrothiazol-2-yl)mercapto]tetrazole], for which the EC50 is 42 µM.

As for `O=c1[nH]c(Sc2ncc([N+](=O)[O-])s2)nc2ccccc12` [Compound 35, 2-[(5-Nitrothiazol-2-yl)mercapto]-4-quinazolone], the EC50 is above 25 µM.

For `O=C(CSc1nnc(Sc2ncc([N+](=O)[O-])s2)s1)Oc1ccccc1` [Compound 24, 2-[(5-Nitrothiazol-2-yl)mercapto]-5-[(phenoxycarbonyl)methylmercapto]-1,3,4-thiadiazole], the EC50 was above 100 µM.

With `COC(=O)c1cnc(Sc2ncc([N+](=O)[O-])s2)n1C` [Compound 42, 4-Methoxycarbonyl-3-methyl-2-[(5-nitrothiazol-2-yl)mercapto]imidazole], the EC50 worked out at 14 µM.

For the molecule `Cc1ccc(Cl)cc1Nc1nnc(Sc2ncc([N+](=O)[O-])s2)s1` [Compound 77, 2-(5-Chloro-2-methylphenylamino)-5-[(5-nitrothiazol-2-yl)mercapto]-1,3,4-thiadiazole], the EC50 was determined as 5 µM.

Take `Cc1cc(C)c(Nc2nnc(Sc3ncc([N+](=O)[O-])s3)s2)cc1C` [Compound 74, 2-[(5-Nitrothiazol-2-yl)mercapto]-5(2,4,5-trimethylphenylamino)-1,3,4-thiadiazole]: the EC50 was above 100 µM.

For the molecule `O=C(Sc1nnc(Sc2ncc([N+](=O)[O-])s2)s1)c1ccccc1` [Compound 65, 2-Benzoylmercapto-5-[(5-nitrothiazol-2-yl)mercapto]-1,3,4-thiadiazole], the EC50 was above 25 µM.

Take `O=C(CN(c1ccccc1)c1nnc(Sc2ncc([N+](=O)[O-])s2)s1)Nc1cccc(C(F)(F)F)c1` [Compound 21, 2-[N-Phenyl-N-[3-(trifluoromethyl)phenylaminocarbonylmethyl]amino]-5-[(5-nitrothiazol-2-yl)mercapto]-1,3,4-thiadiazole]: the EC50 was above 50 µM.

For the molecule `O=[N+]([O-])c1cnc(Sc2nnc(SCC3CC3)s2)s1` [Compound 62, 2-Cyclopropylmethylmercapto-5-[(5-nitrothiazol-2-yl)mercapto]-1,3,4-thiadiazole], the EC50 is above 100 µM.

Consider `O=[N+]([O-])c1cnc(Sc2nc3ncccc3[nH]2)s1` [Compound 20], for which the EC50 is 15 µM.

With `O=[N+]([O-])c1cnc(Sc2nc(O)c3nc(O)[nH]c3n2)s1` [Compound 37], the EC50 was above 100 µM.

On to `CCn1nnnc1Sc1ncc([N+](=O)[O-])s1` [Compound 57, 1-Ethyl-5-[(5-nitrothiazol-2-yl)mercapto]tetrazole], for which the EC50 was 81 µM.

Regarding `Nc1nnc(Sc2ncc([N+](=O)[O-])s2)s1` [Compound 38, 2-Amino-5-[(5-nitrothiazol-2-yl)mercapto]-1,3,4-thiadiazole], the concentration giving a half-maximal response (EC50) is 15.6 µM.

As to `CCOC(=O)c1c[nH]c(Sc2ncc([N+](=O)[O-])s2)n1` [Compound 43, 4-Ethoxycarbonyl-2-[(5-nitrothiazol-2-yl)mercapto]imidazole], the EC50 is 8.5 µM.

For the molecule `O=[N+]([O-])c1cnc(Sc2nc3ccc(S(=O)(=O)O)cc3[nH]2)s1` [Compound 51, 2-[(5-nitrothiazol-2-yl)mercapto]-5-sulfobenzimidazole], the EC50 was determined as 10.3 µM.
